Results as given in patent US5719278A, “Tricyclic benzazepine vasopressin antagonists” (American Cyanamid Company, priority 1996, dated 1998).

What was measured:
[1] = target: T1, V1 Receptor Subtype in Human Platelet (Homo sapiens, UniProt P37288); experiment: Binding to Vasopressin V1 Receptor Subtype in Human Platelet Membranes; conditions: *Binding to V1 Receptor Subtype in Human Platelet
T1 construct: from tissue; host or cells: human platelets (platelet rich plasma from Hudson Valley Blood Services)
T1 sequence (P37288 whole entry): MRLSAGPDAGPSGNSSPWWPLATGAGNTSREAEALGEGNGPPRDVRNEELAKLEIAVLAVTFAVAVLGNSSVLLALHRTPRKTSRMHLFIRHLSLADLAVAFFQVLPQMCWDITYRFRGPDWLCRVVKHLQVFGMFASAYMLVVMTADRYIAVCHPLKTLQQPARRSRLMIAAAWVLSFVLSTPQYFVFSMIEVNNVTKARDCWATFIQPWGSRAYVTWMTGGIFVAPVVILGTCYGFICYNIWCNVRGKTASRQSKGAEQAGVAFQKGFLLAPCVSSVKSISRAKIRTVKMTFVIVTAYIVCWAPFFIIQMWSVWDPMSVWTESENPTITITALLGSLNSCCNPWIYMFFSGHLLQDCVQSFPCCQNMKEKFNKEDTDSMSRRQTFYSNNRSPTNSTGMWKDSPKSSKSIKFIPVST
Protocol: Radioligand Binding Experiments with Human Platelet Membranes
Platelet Source: Hudson Valley Blood Services, Westchester Medical Center, Valhalla, N.Y.
Frozen platelet rich plasma (PRP), received from the Hudson Valley Blood Services are thawed to room temperature. The tubes containing the PRP are centrifuged at 16,000×g for 10 min. at 4° C. and the supernatant fluid discarded. The platelets resuspended in an equal volume of 50.0 mM Tris.HCl, pH 7.5 containing 120 mM NaCl and 20.0 mM EDTA. The suspension is recentrifuged at 16,000×g for 10 min. This washing step is repeated one more time. The wash is discarded and the lysed pellets homogenized in low ionic strength buffer of Tris.HCl, 5.0 mM, pH 7.5 containing 5.0 mM EDTA. The homogenate is centrifuged at 39,000×g for 10 min. The resulting pellet is resuspended in Tris.HCl buffer, 70.0 mM, pH 7.5 and recentrifuged at 39,000×g for 10 min. The final pellet is resuspended in 50.0 mM Tris.HCl buffer pH 7.4 containing 120 mM NaCl and 5.0 mM HCl to give 1.0-2.0 mg protein per ml of suspension.
Binding to Vasopressin V1 Receptor Subtype in Human Platelet Membranes:
In wells of a 96 well format microtiter plate, add 100 μl of 50.0 mM Tris.HCl buffer containing 0.2% BSA and a mixture of protease inhibitors (aprotinin, leupeptin etc.). Then add 20 μl of [^3 H]Ligand: (Manning or Arg^8 Vasopressin), to give final concentrations ranging from 0.01 to 10.0 nM. Initiate the binding by adding 80.0 μl of platelet suspension (approx. 100 μg protein). Mix all reagents by pipetting the mixture up and down a few times. Non-specific binding is measured in the presence of 1.0 μM of unlabeled ligand (Manning or Arg^8 Vasopressin). Let the mixture stand undisturbed at room temperature for ninety (90) min. Upon this time, rapidly filter off the incubate under vacuum suction over GF/B filters, using a Brandel® Harvester. Determine the radioactivity caught on the filter disks by the addition of liquid scintillant and counting in a liquid scintillator

[2] = system: Vasopressin V2; experiment: Vasopressin V2 Antagonist Activity in Conscious Hydrated Rats; type: in vivo, rat; conditions: 10 mg/kg orally, N = 2, AVP 0.4 μg/kg intraperitoneally; for Osmolality (mOsm/kg): urine
Protocol: Vasopressin V2 Antagonist Activity in Conscious Hyrdated Rats
Conscious hydrated rats are treated with compounds under study from 0.1 to 100 mg/kg orally or vehicle. Two to four rats are used for each compound. One hour later, arginine vasopressin (AVP, antidiuretic hormone, ADH) dissolved in peanut oil is administered at 0.4 μg/kg intraperitoneally. Two rats in each test would not receive arginine vasopressin but only the vehicle (peanut oil) to serve as water-loading control. Twenty minutes later each rat is given 30 mL/kg of deionized water orally by gavage and is placed individually in a metabolic cage equipped with a funnel and a graduated glass cylinder to collect urine for four hours. Urine volume is measured and osmolality analyzed by use of a Fiske One-Ten osmometer (Fiske Assoc., Norwood, Mass. U.S.A.). Urinary sodium, potassium, and chloride are analyzed by use of ion-specific electrodes in a Beckman E3(Electrolyte 3) Analyzer.
In the following results, […] and decreased osmolality relative to AVP-control indicates activity.

[3] = target: T2, Rat Hepatic V1 Receptors (Rattus norvegicus, UniProt P30560); experiment: Binding Assay to Rat Hepatic V1 Receptors; conditions: Rat Hepatic V1 Receptors (no asterisk)
T2 construct: Rat liver plasma membranes expressing the vasopressin V1 receptor subtypes; from tissue; host or cells: rat liver plasma membranes
T2 sequence (P30560 whole entry): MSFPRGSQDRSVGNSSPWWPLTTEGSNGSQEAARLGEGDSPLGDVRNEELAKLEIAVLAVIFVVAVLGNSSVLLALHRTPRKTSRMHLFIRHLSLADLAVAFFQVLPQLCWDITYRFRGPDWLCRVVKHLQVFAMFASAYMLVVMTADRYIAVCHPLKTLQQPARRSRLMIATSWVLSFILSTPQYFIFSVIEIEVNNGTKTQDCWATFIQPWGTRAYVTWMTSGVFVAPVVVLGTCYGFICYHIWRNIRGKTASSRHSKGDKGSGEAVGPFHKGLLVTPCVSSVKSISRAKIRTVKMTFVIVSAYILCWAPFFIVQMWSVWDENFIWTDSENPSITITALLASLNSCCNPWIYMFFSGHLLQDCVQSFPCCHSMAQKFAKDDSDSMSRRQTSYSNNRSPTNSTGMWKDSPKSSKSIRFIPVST
Protocol: Binding Assay to Rat Hepatic V1 Receptors
Rat liver plasma membranes expressing the vasopressin V1 receptor subtypes are isolated by sucrose density gradient according to the method described by Lesko et al., (1973). These membranes are quickly suspended in 50.0 mM Tris.HCl buffer, pH 7.4, containing 0.2% bovine serum albumin (BSA) and 0.1 mM phenylmethylsulfonylfluoride (PMSF) and kept frozen at -70° C. until used in subsequent binding experiments. For binding experiments, the following is added to the wells of a ninety-six well format microtiter plate: 100 μl of 100.0 mM Tris.HCl buffer containing 10.0 mM MgCl2, 0.2% heat inactivated BSA and a mixture of protease inhibitors: leupeptin, 1.0 mg %; aprotinin, 1.0 mg %, 1,10-phenanthroline,2.0 mg %; trypsin inhibitor, 10.0 mg % and 0.1 mM PMSF, 20.0 μl of [phenylalanyl-3,4,5-^3 H] vasopressin (S.A. 45.1 Ci/mmole) at 0.8 nM, and the reaction initiated by the addition of 80 μl of tissue membranes containing 20 μg of tissue protein. The plates are kept undisturbed on the bench top at room temperature for 120 min. to reach equilibrium. Non-specific samples are assayed in the presence of 0.1 μM of the unlabeled antagonist phenylalanylvasopressin, added in 20.0 μl volume to a final incubation volume of 200 μl. Upon completion of binding, the content of each well is filtered off, using a Brandel® cell Harvester (Gaithersburg, Md.). The radioactivity trapped on the filter disk by the ligand-receptor complex is assessed by liquid scintillation counting in a Packard LS Counter, with an efficiency of 65% for tritium. The data are analyzed for IC50 values by the LUNDON-2 program for competition (LUNDON SOFTWARE, Ohio).

For `Cc1ccc(F)cc1C(=O)Nc1ccc(C(=O)N2CCc3c[nH]nc3-c3ncccc32)cc1` [Example 367, N-[4-[4(4,5-Dihydropyrazolo[3,4-d]pyrido[3,2-b]azepin-6(1H)-yl)carbonyl]phenyl]-5-fluoro-2-methylbenzamide], the IC50 [1] was 0.31 µM, the “Urine Vol. (ml/4 hrs.)” value [2] was 10 ml/4 hrs and the “Osmolality (mOsm/kg)” value [2] was 627 mOsm/kg.

With `O=C(Nc1ccc(C(=O)N2CCc3cn[nH]c3-c3ncccc32)cc1)c1ccccc1-c1ccccc1` [Example 365, N-[4-[(4,5-Dihydropyrazolo[3,4-d]pyrido[3,2-b]azepin-6(1H)-yl)carbonyl]phenyl][1,1'-biphenyl]-2-carboxamide] the IC50 [1] was 0.101 µM, the “Urine Vol. (ml/4 hrs.)” value [2] was 2.6 ml/4 hrs and the “Osmolality (mOsm/kg)” value [2] was 251 mOsm/kg.

In the case of `O=C(Nc1ccc(C(=O)N2CCc3cn[nH]c3-c3sccc32)cc1)c1ccc(F)cc1Cl` [Example 1, N-[4-[(4,5-Dihydropyrazolo[3,4-d]thieno[3,2-b]azepin-6(1H)-yl)carbonyl]phenyl]-2-chloro-4-fluorobenzamide], the IC50 [3] is reported as 2 µM, the “Urine Vol. (ml/4 hrs.)” value [2] is reported as 15.3 ml/4 hrs and the “Osmolality (mOsm/kg)” value [2] is reported as 535 mOsm/kg.
